Experimental data reported in patent US7223759B2, “Antibacterial 3,5-diaminopiperidine-substituted aromatic and heteroaromatic compounds” (Anadys Pharmaceuticals, Inc., priority 2003, dated 2007).

Tested on: Escherichia coli (ATCC25922) or Staphylococcus aureus (ATCC25923)
Assay: Antibacterial MIC, microdilution method in Mueller-Hinton medium
Assay type: cell-based
Settings: Escherichia coli, 18 h, MIC in E. coli or S. aureus; two-fold serial dilutions 64 to 0.5 μg/ml in duplicate; 18 hours of incubation at 35° C.; read-out: Potency (MIC)
Outline: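 Read after 18 h incubation at 35° C, MIC is the lowest compound level that blocked growth. Compounds were tested in duplicate over 64–0.5 μg/ml two-fold dilutions using Mueller-Hinton microdilution per NCCLS standard.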

MIC [µg/mL]	SMILES
> 64	Cl.Oc1cccc2ccc(Nc3nc(N4CCCCC4)nc(N4CCCCC4)n3)nc12 [N-(8-hydroxy-quinolin-2-yl)-4,6-Bis-((3R,5S)-3,5-diamino-piperidin-1-yl)-[1,3,5]triazine-2-ammine]
> 64	CC(C)C(=O)Nc1ccc(Nc2nc(N3C[C@H](N)C[C@H](N)C3)nc(N3C[C@H](N)C[C@H](N)C3)n2)cc1O [N-(3-hydroxy-4-isobutyrylamino-phenyl)-4,6-Bis-((3R,5S)-3,5-diamino-piperidin-1-yl)-[1,3,5]triazine-2-amine]
< 64	Cl.NC1C[C@H](N)CN(c2nc(Nc3ccc(Br)c4ccccc34)nc(N3C[C@H](N)C[C@H](N)C3)n2)C1 (stereo in doubt) [N-(4-bromo-naphthalen-1-yl)-4,6-Bis-((3R,5S)-3,5-diamino-piperidin-1-yl)-[1,3,5]triazine-2-amine]
< 64	N=C(N)Nc1ccc(Nc2nc(N3CCCCC3)nc(N3CCCCC3)n2)cc1 [N-(4-quanidino-phenyl)-4,6-Bis-((3R,5S)-3,5-diamino-piperidin-1-yl)-[1,3,5]triazine-2-amine]
< 64	Cc1cc(C)c(S(=O)(=O)Nc2ccc(Nc3nc(N4CCCCC4)nc(N4CCCCC4)n3)cc2O)c(C)c1.Cl [N-[3-hydroxy-(2,4,6-trimethyl-benzenesulfonylamino)-phenyl]-4,6-Bis-((3R,5S)-3,5-diamino-pperidin-1-yl)-[1,3,5]triazine-2-amine]
< 64	Cl.O=C(Nc1cc(C(F)(F)F)ccc1Cl)c1ccc(Nc2nc(N3CCCCC3)nc(N3CCCCC3)n2)cc1O [N-[4-(2-chloro-5-trifluoromethyl-phenylcarbamoyl)-3-hydroxy-phenyl]-4,6-Biss-((3R,5S)-3,5-diamino-piperidin-1-yl)-[1,3,5]triazine-2-amine]
< 16	Cl.O=C(Nc1ccc(Nc2cc(N3CCCCC3)cc(N3CCCCC3)c2)cc1)c1ccc2ccccc2c1O [1-Hydroxy-naphthalene-2-cxarboxylicacid {4-[3-((3R,5S)-3,5-diamino-piperidin-1-yl)-5-((3S,5R)-3,5-diamino-piperidin-1-yl)-phenylamino]-phenyl}-amide]
> 64	N[C@@H]1CC(c2nc(NCc3ccco3)nc(N3C[C@H](N)C[C@H](N)C3)n2)C[C@H](N)C1 (stereo partly drawn) [N-furan-2-ylmethyl-44,6-Bis-((3R,5S)-3,5-diamino-piperidin-1-yl)-[1,3,5]triazine-2-amine]
> 64	N[C@@H]1C[C@H](N)CN(c2nc(Nc3ccccc3N3CCOCC3)nc(N3C[C@H](N)C[C@H](N)C3)n2)C1 [N-(2-morpholin-44-yl-phenyl)-4,6-Bis-((3R,5S)-3,5-diamino-piperidin-1-yl)-[1,3,5]triazine-2-amine]
< 64	Cl.NCCN(CCN)c1nc(Nc2ccc(C(=O)Oc3ccccc3)c([N+](=O)[O-])c2)nc(N2CCCCC2)n1 [4-[4-[Bis-(2-amino-ethyl)-amino]-6-((3R,5S)-3,5-diamino-piperidin-1-yl)-[1,3,5]triazin-2-ylamino]-2-hydroxy-benzoic acidphenyl ester]
< 64	Cl.N[C@@H]1C[C@H](N)CN(c2nc(N3C[C@H](N)C[C@H](N)C3)nc(N3CCc4cc(Br)ccc43)n2)C1 [4-[4-(4,6-Bis-((3R,5S)-3,5-diamino-piperidin-1-yl)-[1,3,5]triazin-2-yl)-piperiazin-1-yl]-phenol]

Same assay, conditions: Escherichia coli, 18 h, read-out: Potency (MIC)

SMILES	MIC [µg/mL]
Cc1cc(NC(=O)c2ccc(O)cc2O)ccc1Nc1nc(N2C[C@H](N)C[C@H](N)C2)nc(N2C[C@H](N)C[C@H](N)C2)n1 [N-[4-(2,4-dihydroxy-benzoylamino)-2-methyl-phenyl]-4,6-Bis-((3R,5S)-3,5-diamino-piperidin-1-yl)-[1,3,5]triazine-2-amine]	< 64
Cc1cc(Nc2nc(N3C[C@H](N)C[C@H](N)C3)nc(N3C[C@H](N)C[C@H](N)C3)n2)ccc1[N+](=O)[O-] [N-(3-methyl-4-nitro-phenyl)-4,6-Bis-((3R,5S)-3,5-diamino-piperidin-1-yl)-[1,3,5]triazine-2-amine]	< 64
N[C@@H]1C[C@H](N)CN(c2nc(Nc3ccc(NC(=O)c4ccc(Cl)cc4)c(O)c3)nc(N3CCNCC3)n2)C1 [4-Chloro-N-{4-[4-((3S,5R)-3,5-diamino-piperidin-1-yl)-6-piperazin-1-yl-[1,3,5]triazin-2-ylamino]-2-hydroxy-phenyl}-benzamide]	< 16
N[C@@H]1C[C@H](N)CN(c2nc(Nc3ccc(C(=O)CC(=O)Nc4ccc(F)c(F)c4)cc3)nc(N3C[C@H](N)C[C@H](N)C3)n2)C1 [N-{4-[2-(3,4-difluoro-phenylcarbamoyl)-acetyl]-phenyl}-4,6-Bis-((3R,5S)-3,5-diamino-piperidin-1-yl)-[1,3,5]triazine-2-amine]	< 16
CNC(=S)NNc1nc(N2C[C@H](N)C[C@H](N)C2)nc(N2C[C@H](N)C[C@H](N)C2)n1 [N-(3-methyl-thioureido)-4,6-Bis-((3R,5S)-3,5-diamino-piperidin-1-yl)-[1,3,5]triazine-2-amine]	> 64
Cc1ccc(C(=O)Nc2ccc(Nc3nc(N4C[C@H](N)C[C@H](N)C4)nc(N4C[C@H](N)C[C@H](N)C4)n3)cc2O)cc1 [N-[3-hydroxy-4-(4-methyl-benzoylamino)-phenyl]-4,6-Bis-((3R,5S)-3,5-diamino-piperidin-1-yl)-[1,3,5]triazine-2-amine]	< 16
N[C@@H]1C[C@H](N)CN(c2nc(NCCNc3ccc([N+](=O)[O-])cn3)nc(N3C[C@H](N)C[C@H](N)C3)n2)C1 [N-[2-(5-nitro-pyridin-2-ylamino)-ethyl]-4,6-Bis-((3R,5S)-3,5-diamino-piperidin-1-yl)-[1,3,5]triazine-2-amine]	> 64
N[C@@H]1C[C@H](N)CN(c2nc(Nc3ccc(NC(=O)c4ccc(N5Cc6ccccc6C5)cc4O)c(Cl)c3)nc(N3C[C@H](N)C[C@H](N)C3)n2)C1 [N-{3-chloro-4-[4-(1,3-dihydro-isoindol-2-yl)-2-hydroxy-benzoylamino]-phenyl}-4,6-Bis-((3R,5S)-3,5-diamino-piperidin-1-yl)-[1,3,5]triazine-2-amine]	< 16
N[C@@H]1C[C@H](N)CN(c2nc(Nc3ccc(NC(=O)c4ccc(Cl)cc4)c(O)c3)nc(N3CCN(c4ccncc4)CC3)n2)C1 [4-Chloro-N-{4-[4-((3S,5R)-3,5-diamino-piperidin-1-yl)-6-(4-pyridin-4-yl-piperazin-1-yl)-[1,3,5]triazin-2-ylamino]-2-hydroxy-phenyl}-benzamide]	< 64
N[C@@H]1C[C@H](N)CN(c2nc(Nc3ccc(C(=O)Nc4ccc(S(=O)(=O)Nc5ccc6cn[nH]c6c5)cc4)c(O)c3)nc(N3C[C@H](N)C[C@H](N)C3)n2)C1 [N-(3-hydroxy-4-[4-(1H-indazol-6-ylsulfamoyl)-phenylcarbamoyl]-phenyl)-4,6-Bis-((3R,5S)-3,5-diamino-piperidin-1-yl)-[1,3,5]triazine-2-amine]	< 64
N[C@@H]1C[C@H](N)CN(c2nc(NCCCn3ccnc3)nc(Nc3ccc(S(=O)(=O)Nc4ccc5cn[nH]c5c4)cc3)n2)C1 [4-[4-((3S,5R)-3,5-Diamino-piperidin-1-yl)-6-(3-imidazol-1-yl-propylamino)-[1,3,5]triazin-2-ylamino]-N-(1H-indazol-6-yl)-benzenesulfonamide]	> 64
N[C@@H]1C[C@H](N)CN(c2nc(Nc3cccc(NC(=O)c4cccc(O)c4O)c3)nc(N3C[C@H](N)C[C@H](N)C3)n2)C1 [N-[3-(2,3-dihydroxy-benzoylamino)-phenyl]-4,6-Bis-((3R,5S)-3,5-diamino-piperidin-1-yl)-[1,3,5]triazine-2-amine]	< 16
N[C@@H]1C[C@H](N)CN(c2nc(Nc3ccc(NC(=O)c4ccccc4Cl)c(O)c3)nc(N3C[C@H](N)C[C@H](N)C3)n2)C1 [N-[4-(2-chloro-benzoylamino)-3-hydroxy-phenyl]-4,6-Bis-((3R,5S)-3,5-diamino-piperidin-1-yl)-[1,3,5]triazine-2-amine]	< 64
Cc1cc(=O)oc2cc(Nc3nc(N4C[C@H](N)C[C@H](N)C4)nc(N4C[C@H](CN)C[C@H](CN)C4)n3)ccc12 [7-[4-((3S,5R)-3,5-Bis-(aminomethyl)-piperidin-1-yl)-6-((3R,5S)-3,5-diamino-piperidin-1-yl)-[1,3,5]triazin-2-ylamino]-4-methyl-chromen-2-one]	> 64
CCCC(=O)Nc1ccc(Nc2nc(N3C[C@H](N)C[C@H](N)C3)nc(N3C[C@H](N)C[C@H](N)C3)n2)cc1O [N-(4-butyrylamino-3-hydroxy-phenyl)-4,6-Bis-((3R,5S)-3,5-diamino-piperidin-1-yl)-[1,3,5]triazine-2-amine]	> 64
N[C@@H]1C[C@H](N)CN(c2nc(NNc3cc(Cl)cc(Cl)c3)nc(N3C[C@H](N)C[C@H](N)C3)n2)C1 [N-(4,6-Bis-((3R,5S)-3,5-diamino-piperidin-1-yl)-[1,3,5]triazin-2-yl)-N′-(3,5-Dichloro-phenyl)-hydrazine]	< 64
COc1cc2c(cc1Nc1nc(N3C[C@H](N)C[C@H](N)C3)nc(N3C[C@H](N)C[C@H](N)C3)n1)oc1ccccc12 [N-(2-methoxy-dibenzofuran-3-yl)-4,6-Bis-((3R,5S)-3,5-diamino-piperidin-1-yl)-[1,3,5]triazine-2-amine]	< 64
N[C@@H]1C[C@H](N)CN(c2nc(Nc3ccc(S(N)(=O)=O)cc3)nc(N3C[C@H](N)C[C@H](N)C3)n2)C1 [N-(4-sulfamoyl-phenyl)-4,6-Bis-((3R,5S)-3,5-diamino-piperidin-1-yl)-[1,3,5]triazine-2-amine]	> 64

Same assay, conditions: MIC in E. coli or S. aureus; two-fold serial dilutions 64 to 0.5 μg/ml in duplicate; 18 hours of incubation at 35° C.

SMILES	Potency (MIC)
NC[C@@H]1C[C@H](N)CN1c1nc(Nc2ccc(NC(=O)C(=O)c3c[nH]c4ccccc34)c(O)c2)nc(N2C[C@H](N)C[C@H](N)C2)n1 [N-{4-[4-((2S,4S)-44-Amino-2-aminomethyl-pyrrolidin-1-yl)-6-((3R,5S)-3,5-diamino-piperidin-1-yl)-[1,3,5]triazin-2-ylamino]-2-hydroxy-phenyl}-2-(1H-indol-3-yl)-2-oxo-acetamide]	++ (++ means MIC<16 μg/ml in E. coli or S. aureus)
